Among the test systems are CCRF-CEM; COLO 205; HCC 2998; HCT-116; HCT-15; HL-60; HOP-62; K562; KM12; MOLT-4; NCI-H226; OVCAR-5; RPMI-8226; SF-268; SF-295; SK-OV-3; UACC-257; UO-31; A549; SNB-19.
Common to all, as to experiment: NCI tumour cell line growth inhibition, 48 h

SMILES strings stand for the structures.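 Dose response: 5 concentrations. Exposure: 48 h. Format: 96-well plates. Endpoint: linear interpolation; highest concentration if not reached. GI50: concentration for 50% inhibition of growth.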 Activity calls are given as the source filed them. Rule as the data show it: active = GI50 up to about 1.1 µM and inactive = higher. Bounds are passed on as bounds.

For `C[C@H](O)C(=O)SC[C@H](NC(=O)CC[C@@H](N)C(=O)O)C(=O)NCC(=O)O`, the GI50 with CCRF-CEM was > 100 µM (inactive); with COLO 205, > 100 µM (inactive); with HCC 2998, > 100 µM (inactive); in the assay with HCT-116, > 100 µM (inactive); in the assay on HCT-15, greater than 100 µM; in the assay with HL-60, > 10 µM (inactive). In addition, the GI50 in the assay on HOP-62, in the assay on K562, with KM12, in the assay on MOLT-4, in the assay with NCI-H226 and in the assay with OVCAR-5 was > 100 µM (inactive) each time. In addition, the GI50 with RPMI-8226, in the assay with SF-268, with SF-295, with SK-OV-3, with UACC-257 and with UO-31 was > 100 µM (inactive) in each case.
Turning to `Cn1cc(NC(=O)[C@H]2CCC(N)=N2)cc1C(=O)NCCC(=N)N`, the GI50 in the assay with A549, in the assay on CCRF-CEM, in the assay with COLO 205, in the assay with HCC 2998, in the assay on HCT-116 and in the assay on HL-60 was > 100 µM (inactive) each time. The GI50 in the assay on HOP-62, in the assay with K562, in the assay with KM12, in the assay with MOLT-4, in the assay on NCI-H226 and in the assay with RPMI-8226 was > 100 µM (inactive) throughout. Also, the GI50 with SF-268, with SF-295, in the assay with SK-OV-3, in the assay on SNB-19, in the assay with UACC-257 and in the assay on UO-31 was > 100 µM (inactive) each time.
For the compound `OCCCC(O)(c1ccccc1)c1ccccc1`, the GI50 is > 100 µM (inactive) in the assay on A549; > 100 µM (inactive) with CCRF-CEM; > 100 µM (inactive) in the assay on HCC 2998; greater than 100 µM in the assay on HCT-15; > 100 µM (inactive) with HL-60; > 100 µM (inactive) in the assay on HOP-62. Also, the GI50 in the assay on K562, with KM12, with MOLT-4, in the assay on NCI-H226, in the assay with OVCAR-5 and with RPMI-8226 was > 100 µM (inactive) throughout. Besides, the GI50 with SF-268, in the assay with SF-295, in the assay with SK-OV-3, in the assay with SNB-19, with UACC-257 and with UO-31 was > 100 µM (inactive) throughout.
Consider `CCCCCCCSc1nc2c(C(=O)OCC)ncn2c2ccccc12`, for which the GI50 is > 100 µM (inactive) with CCRF-CEM; > 100 µM (inactive) in the assay on COLO 205; > 100 µM (inactive) in the assay with HCC 2998; > 100 µM (inactive) in the assay with HCT-116; greater than 100 µM with HCT-15; > 100 µM (inactive) with HL-60. Moreover, the GI50 in the assay with HOP-62 was 43.3 µM (inactive); with K562, > 100 µM (inactive); with KM12, > 100 µM (inactive); in the assay on MOLT-4, > 100 µM (inactive); in the assay on NCI-H226 it was > 100 µM (inactive); in the assay on OVCAR-5 it was > 100 µM (inactive). Besides, the GI50 with RPMI-8226 is > 100 µM (inactive); with SF-268, > 100 µM (inactive); with SF-295, 91.8 µM (inactive); in the assay on SK-OV-3, > 100 µM (inactive); with UACC-257, > 100 µM (inactive); with UO-31 it was > 100 µM (inactive).
